The values below come from patent publication US11421237B2, “Pair of amino acid sequences for monitoring formation of TDP-43 oligomer in living cells via bimolecular fluorescence complementation” (KOREA INSTITUTE OF SCIENCE AND TECHNOLOGY, priority 2019, dated 2022).

Format in all cases: cell-based, human
In test [1] the test system is TDP-43-BiFC cells. The experiment in a line: BiFC fluorescence analysis of TDP-43 oligomer formation in TDP-43-BiFC cells (384-well, Operetta). The note with it: 48 hours at 37° C.; for increase of BiFC fluorescence in the cells compared to untreated cells: forskolin 30 μM, scriptaid 3 μM, thapsigargin 1 μM, ionomycin 1 μM, Cu^2+ 1 μM, Zn^2+ 30 μM; for change in BiFC fluorescence of TDP-43 (in words): MG132 5 μM, α-synuclein 5 μg/ml, tauK18^P301L 5 μg/ml. On the procedure: In order to develop a TDP-43-BiFC cell line, the TDP-43-VN173 and TDP-43-VC155 constructs shown in FIG. 2 were co-transfected into HEK293 BiFC cells. For establishment of a stable cell line, the transfected cells were selected by culture with growth medium containing 100 μg/mL geneticin (G418; Sigma). In addition, the selected cells were sorted using FACSAria (BD Bioscience) into cells showing fluorescence. The sorted TDP-43-BiFC cells were kept in DMEM medium containing 10% FBS, 100 units/mL penicillin, 100 μg/mL streptomycin and 100 μg/mL G418 in a humidified atmosphere at 37° C. under 5% CO2.
The TDP-43-BiFC cells prepared in Example 1 above were treated with a compound that induces PTMs of protein, a compound that ER stress in cells, amyloid protein, metal ions, or the like, and changes in BiFC fluorescence in the cells were examined. Specifically, for fluorescence analysis, the TDP-43-BiFC cells were grown in a 384-well plate and treated with each of forskolin (30 μM), scriptaid (3 μM), thapsigargin (1 μM), ionomycin (1 μM), MG132 (5 μM), α-synuclein (5 μg/ml), tauK18^P301L (5 μg/ml), Cu^2+ (1 μM) and Zn^2+ (30 μM), followed by culture at 37° C. for 48 hours. Fluorescence images were obtained using Operetta® (PerkinElmer), and the fluorescence intensity in the nucleus and the cytoplasmic fluorescence intensity were analyzed using Harmony3.1 software (PerkinElmer).

Test [2] deals with TDP-43-BiFC cells. The test can be described thus: Intracellular distribution of BiFC fluorescence, high-magnification imaging. The settings on record: treated as in Example 2 (scriptaid 3 μM, 48 hours); 1000× magnification. The source says: Next, the pattern of intracellular distribution by an increase in TDP-43 oligomer formation was examined. Specifically, TDP-43 formation was induced in the same manner as Example 2 above, and then the whole plate was automatically imaged using Operetta®, and high-resolution images were obtained using a Nikon Eclipse inverted microscope (Ti, Nikon) at 1000× magnification.

The test system of test [3] is TDP-43-BiFC cells. The test can be described thus: Isolation of TDP-43 oligomer with GFP-trap beads and immunoblot with anti-TDP-43 antibody. The note with it: 24 hours at 37° C., forskolin 30 μM, scriptaid 1 μM, thapsigargin 0.5 μM, ionomycin 1 μM, SDS-PAGE, immunoblot. On the procedure: Lysates of the TDP-43-BiFC cells treated with each of the four drugs in Example 3 and a lysate of untreated cells were prepared and TDP-43 oligomers were isolated therefrom. Specifically, TDP-43-BiFC cells were grown in a 6-well plate, treated with each of forskolin (30 μM), scriptaid (1 μM), thapsigargin (0.5 μM) and ionomycin (1 μM), and cultured at 37° C. for 24 hours, and then lysates of the cells were prepared. GFP-trap beads shown in FIG. 5a were added to the lysates which were then incubated at 4° C. for 16 hours, and the oligomerized TDP-43 protein was isolated. The isolated protein was separated by SDS-PAGE, and immunoblot analysis was performed using anti-TDP-43 antibody.

Values joined by “and” are separate entries in the source; they are usually repeats but may differ in a detail not shown here. Equal entries are not always repeated. “Also recorded” adds a separate entry of the source. Peptide text beside a SMILES is read from it. * marks the point of attachment. Cbz = O=C(OCc1ccccc1)*

Take `O=C(CCCCCN1C(=O)c2cccc3cccc(c23)C1=O)NO` [scriptaid]: the “increase of BiFC fluorescence in the cells compared to untreated cells” value (“increase of BiFC fluorescence” for short) in test [1] is 36 fold and 48 fold. Further, the “distribution of BiFC fluorescence in nucleus and cytoplasm” value in test [2] is given as “greatly increased the fluorescence not only in the nucleus but also in the cytoplasm; also recorded: significantly increased not only in the nucleus but also in the cytoplasm”. The “amount of detected oligomerized TDP-43 protein compared to untreated cells” value in test [3] is recorded as “largest amount”.

Take `C/C=C(/C)C(=O)O[C@H]1C(C)=C2[C@H]([C@@H]1OC(=O)CCCCCCC)[C@@](C)(OC(C)=O)C[C@H](OC(=O)CCC)[C@@]1(O)[C@H]2OC(=O)[C@@]1(C)O` [thapsigargin]: the “increase of BiFC fluorescence” value in test [1] is reported as 31 fold.

Turning to `C[C@H](CCC(=O)O)C[C@H](C)C[C@H](C)C(=O)/C=C(\O)[C@H](C)C[C@H](C)C/C=C/[C@@H](C)[C@@H](O)[C@@H](C)[C@@H](O)C[C@@H]1CC[C@@](C)([C@H]2CC[C@@](C)([C@@H](C)O)O2)O1` [ionomycin], the “increase of BiFC fluorescence” value in test [1] is recorded as 7 fold.

As to `[Cu+2]` [Cu^2+], the “increase of BiFC fluorescence” value in test [1] is listed as “about 2 fold”.

For the compound `CC(C)C[C@@H](C=O)NC(=O)[C@H](CC(C)C)NC(=O)[C@H](CC(C)C)NC(=O)OCc1ccccc1` [MG132] (Cbz-Leu-Leu-Leu-aldehyde), in test [1], the “change in BiFC fluorescence of TDP-43 (in words)” value (“change in BiFC fluorescence” below) was “no change”.

Consider α-synuclein, for which the “change in BiFC fluorescence” value in test [1] was “did not increase”.

Regarding `[Zn+2]` [Zn^2+], the “increase of BiFC fluorescence” value in test [1] was “about 2 fold”.

Consider tauK18^P301L, for which the “change in BiFC fluorescence” value in test [1] is reported as “did not increase”.
